PMC8401465, “In Vitro Testing of Alternative Synthetic and Natural Antiparasitic Compounds against the Monogenean Sparicotyle chrysophrii” (Pathogens, 2021)
“Also recorded” adds a separate entry of the source. Like-named read-outs stand apart in the source and are kept apart here.

Experiments:
[1] = system: Sparicotyle chrysophrii adults; assay: microbe, parasite or virus in culture; conditions: Sparicotyle chrysophryii
Method: Firstly, the adult monogeneans were exposed to a range of four concentrations of tested compounds encompassing the full dose–response range; each compound stock at 10 mM was serially diluted 10 (1 mM), 10^2 (0.1 mM), 10^3 (0.01 mM), and 10^4 (1 µM) times. […] Ten monogeneans per well (in triplicate) were added to 2 mL sterile seawater (SW) in 6-well plates, checked at the stereomicroscope for visible signs of mechanical damage, and exposed to selected concentrations in the dark at room temperature (Table 1). The number of live/dead parasites was recorded under the stereomicroscope at 1, 4, 12, and 24 h post-exposure. S. chrysophrii was considered to be alive if it performed any type of movement autonomously or 5 s after gentle probing with a dissection needle. Negative controls comprised the seawater with up to 0.5% of DMSO in total volume, the latter used as a solvent for each compound.

SAF-1 cells = assay: Viability of SAF-1 cell line (MTT assay); type: cell-based, Sparus aurata; conditions: for viability of SAF-1 cells compared to control: 0.1–10 µM, 24, 48, 72 h
Method: Sparus aurata fibroblast cell line SAF-1 (ECACC n°00122301) was cultured in 25 cm^2 plastic flasks (Nunc, Darmstadt, Germany) in L-15 Leibowitz medium (Sigma, Haverhill, UK) supplemented with 10% fetal bovine serum (FBS), 2 mmol/L L-glutamine, 100 iu/mL penicillin, and […] streptomycin (all reagents from Sigma-Aldrich, Saint Louis, MO, USA).
Cells were grown at 25 °C under an 85% humidity atmosphere. Cells at 80% of confluence were detached with trypsin solution (0.25% of trypsin in PBS, pH 7.2–7.4) and pelleted by centrifugation (1000 rpm, 10 min, 25 °C). The cell suspension in complete medium was dispensed in a 96-multiwell plate at a density of 8000 cells/well and incubated for 24 h before the exposure to the compounds.
Cytotoxicity assay was performed in six replicates. Stock solutions were prepared by dissolving the compounds in dimethyl sulfoxide (DMSO), and then diluting in complete medium (final concentration of DMSO 0.1%) to obtain concentration of 0.1, 1, and 10 µM of target compounds.
Cells were then incubated for 24, 48, and 72 h in three different plates at 25 °C. Control samples received the same volume of culture medium and DMSO 0.1%, although this concentration of solvent is considered non-toxic.
The toxicity of the compounds was determined using the (3-(4,5-dimethylthiazol-2-yl)-2,5-diphenyltetrazolium bromide (MTT, Sigma-Aldrich) assay, according to [62], as reported in [61]. The results were expressed as viability percentage in respect to the controls (untreated cells).
The MTT assay is based on the reduction in the yellow soluble tetrazolium salt (3-(4,5-dimethylthiazol-2-yl)-2,5-diphenyltetrazolium bromide) (MTT, Sigma-Aldrich, Saint Louis, Missouri, USA) into a blue, insoluble formazan produced by the mitochondrial succinate dehydrogenase. […] After 4 h of incubation, cells were washed again, and the formazan crystals solubilized with […] of DMSO. Plates were shaken (5 min, 100 rpm) in dark conditions and the optical densities (ODs) at 570 nm with background subtraction at 690 nm were determined in a microplate reader (Opsys MR™ Microplate Reader, USA). The percentage of viability was determined by formula:Viability (%) = (OD of the tested sample/OD of the control sample) × 100

Vibrio harveyi = assay: Bactericidal activity (MTT), Vibrio harveyi; type: cell-based; conditions: for inhibition at 0.1 µM / inhibition at 1 µM / inhibition at 10 µM: Vibrio harveyi, read-out: Bactericidal activity (%)
Method: (§1) Two bacterial fish pathogens, Vibrio harveyi and V. anguillarum were used to test the bactericidal activity of the target compounds, being previously isolated and identified as described in [65]. Lab strains were maintained at −20 °C in Tryptone Soy Broth (TSB, Difco Laboratories, Inc., Detroit, MI, USA) supplemented with 1% (w/v) NaCl (TSB1) and 50% (v/v) glycerol. […] Bacteria in TSB medium were then cultured at the same temperature with continuous shaking (100 rpm) for 24 h. Exponentially grown bacteria were resuspended in sterile PBS and adjusted to the concentration of 10^8 colony forming units (cfu)/mL. Each target compound (20 μL; concentrations 0.1, 1, and 10 µM) was added (in triplicates) to the wells of a flat-bottom 96-well plate, except for the positive control that consisted of 0.5% DMSO in PBS. Aliquots of 20 μL of the previously cultured bacteria were added, and the plate was incubated for 5 h at 25 °C. […] The plate was then centrifuged (4500 rpm, 10 min) and the precipitate dissolved in 200 μL of DMSO. The solution (100 μL) from each well was transferred to another flat-bottom 96-well plate. The absorbance of the dissolved formazan was measured at 570 nm. Bactericidal activity was expressed as percentage of nonviable bacteria, calculated as the difference between absorbance of surviving bacteria compared to the absorbance of bacteria in positive controls (100%).

Vibrio anguillarum = assay: Bactericidal activity (MTT), Vibrio anguillarum; type: cell-based; conditions: for inhibition at 0.1 µM / inhibition at 1 µM / inhibition at 10 µM: Vibrio anguillarum, read-out: Bactericidal activity (%); for antibacterial activity against V. anguillarum: among the natural compounds
Method: as §1

[2] = system: Sparicotyle chrysophrii adults; assay: microbe, parasite or virus in culture; conditions: for LC20 (95% CI), toxicity level for adult S. chrysophrii: 20% mortality; for LC20 (95% CI), toxicity level for adult S. chrysophrii / LC80 (95% CI), toxicity level for adult S. chrysophrii: 4 h post-exposure; for LC80 (95% CI), toxicity level for adult S. chrysophrii: 80% mortality; for LC50: Sparicotyle chrysophryii, 4 h, read-out: LC50 (95% CI), toxicity level for adult S. chrysophrii; for b (SE), slope of dose–response model / e (SE), midpoint of dose–response model: Weibull type 2, c = 0, d = 1, mortality at 4 h post-exposure
Method: Subsequently, the monogeneans (n = 6, in triplicate) were exposed to a range of seven concentrations tailored according to each compound’s activity observed in preliminary tests. The range for each compound was scaled down to an appropriate order of magnitude so that each compound reached 100% mortality at 4 h post-exposure (Table 1).
For the dose–response curve fitting, the drc package for R (v4.0.4) was used. An appropriate nonlinear regression model was selected between log-logistic and Weibull type models, based on the Akaike information criterion (AIC) and lack-of-fit test criteria through the use of mselect function. The best scoring model was Weibull type 2 model (asymmetrical) with lower and upper limits fixed to 0 and 1, respectively, as mortality in all assays reached 100%. […] Model parameters and estimated lethal doses (20%, 50%, and 80%) were calculated with standard errors and 95% confidence intervals, based on the delta method, respectively, and adjusted for simultaneous inference through multcomp package. Dose–response curves were visualised using ggplot2 library.

[3] = system: wild and drug-resistant Leishmania donovani amastigotes; set-up: method as in PMID 28400285; conditions: cited from earlier work

SMILES	viability of SAF-1 cells compared to control (SAF-1 cells)	inhibition at 0.1 µM (Vibrio harveyi; 0.1 µM, 5 h at 25 °C) [%]	inhibition at 1 µM (Vibrio harveyi; 1 µM, 5 h at 25 °C) [%]	inhibition at 10 µM (Vibrio harveyi; 10 µM, 5 h at 25 °C) [%]	inhibition at 0.1 µM (Vibrio anguillarum; 0.1 µM, 5 h at 25 °C) [%]	inhibition at 1 µM (Vibrio anguillarum; 1 µM, 5 h at 25 °C) [%]	inhibition at 10 µM (Vibrio anguillarum; 10 µM, 5 h at 25 °C) [%]	LC20 (95% CI), toxicity level for adult S. chrysophrii [2]	LC80 (95% CI), toxicity level for adult S. chrysophrii [2]	LC50 [2] [µM]	b (SE), slope of dose–response model [2]	e (SE), midpoint of dose–response model [2]	potency / effect against V. anguillarum as judged in the discussion (Vibrio anguillarum)	antibacterial activity against V. anguillarum (Vibrio anguillarum; p < 0.05)	further results
CCCCCCc1ccc(O)cc1O [4-Hexylresorcinol, reference compound]	did not induce a significant reduction in viability	19.6 ± 31.5	34.7 ± 10.1	67.5 ± 14.1	-121 ± 10.9	-76.1 ± 33.9	-55.5 ± 31.6								mortality at 1000 µM ([1]; 1 h): 100%; bactericidal activity against V. harveyi (Vibrio harveyi; synthetic compounds, at increased concentrations): significant bactericidal activity
S=C=Nc1ccc(N=C=S)cc1 [Bitoscanate, reference compound]	did not induce a significant reduction in viability														mortality at 1000 µM ([1]; 24 h): 100%; inhibition at 0.1 µM (Vibrio harveyi; 5 h): -21.6 ± 6%; inhibition at 1 µM (Vibrio harveyi; 5 h): -0.088 ± 16.3%; inhibition at 10 µM (Vibrio harveyi; 5 h): 13.1 ± 5.1%; antimicrobial activity against V. anguillarum (Vibrio anguillarum; 10 µM, p < 0.05): best antimicrobial activity; inhibition at 0.1 µM (Vibrio anguillarum; 5 h): -10.8 ± 19.9%; inhibition at 1 µM (Vibrio anguillarum; 5 h): 19.6 ± 3.7%; inhibition at 10 µM (Vibrio anguillarum; 5 h): 30.5 ± 2%
C[C@@H]1CC[C@H]2C(C)(C)[C@H]3C[C@@]12CC[C@@]3(C)O [Cedrol]		-44.9 ± 7.7	-23.8 ± 6.9	-2.4 ± 26.9	-6.9 ± 3	24.1 ± 8	30.8 ± 6.4	0.09 (0.06–0.11) mM	0.14 (0.12–0.16) mM	110	3.98 (0.66)	0.12 (0.01)	effective only against V. anguillarum	strongest antibacterial activity	times the L. donovani IC50 is lower than the LC50 observed for S. chrysophrii ([2]; IC50 1.5 μM (ref 33) against own LC50): approximately 73; reduction in sea bream fibroblasts' viability (SAF-1 cells; 10 µM, 72 h of exposure): highest reduction in sea bream fibroblasts’ viability; also recorded: moderately toxic to the host cell line during long-term exposure to very high concentrations; fold increase of selectivity index (CC50/IC50) ([3]; incorporated and delivered within lipid nanocarrier, wild-type L. donovani): 2.1; IC50 ([3]; wild and drug-resistant L. donovani amastigotes infecting humans, read-out: inhibitory concentration (IC50)): 1.5 µM
COc1cc(/C=C/C(=O)CC(=O)/C=C/c2ccc(O)c(OC)c2)ccc1O [Curcumin]		2.1 ± 15	7.6 ± 2.1	10.4 ± 4.5	9.5 ± 7.5	24.5 ± 14.6	34.9 ± 1.2	0.14 (0.06–0.23) mM	0.36 (0.26–0.45) mM	240	2.14 (0.44)	0.29 (0.03)	potent anti-Vibrio anguillarum agent	strongest antibacterial activity	fold less toxic for the monogenean compared to cedrol ([2]; comparison with cedrol): 2; cytotoxicity in SAF-1 cells (SAF-1 cells; 10 µM for 24 h): exerted significant cytotoxicity; potency / effect against V. harveyi as judged in the discussion (Vibrio harveyi): ineffective against V. harveyi
